Measured values published in patent publication US9512115B2, “Inhibitors” (PROBIODRUG AG, priority 2013, dated 2016).

Assay: Pharmacokinetic parameters in mice after oral administration (plasma, brain, CSF)
Format: in vivo, mice (strain CD-1)
Details: brain tissue vs plasma; CD-1 mice, 30 mg/kg orally
Description: The mice were anesthetized with Isoflurane. Approximate 200 μL of each blood sample were collected via cardiac puncture for terminal bleeding into K2EDTA tubes. […] CSF collection: The animals were euthanized with pure CO2 inhalation. A mid line incision was made on the neck. The muscle under the skin was cut to expose the cisterna magna. The cisterna magna was penetrated with the sharp end of a capillary and CSF was collected via capillarity. […] A mid-line incision was made in the animal scalp. The brain was removed and rinsed with cold saline. Brain was placed into a screw-top tube and weighed. […] The brain concentration was corrected with a dilution factor of 4 as following: Brain concentration=brain homogenate conc.×4, assuming 1 g wet brain tissue equals to 1 ml. For plasma samples: […] For Brain samples: Brain tissue was homogenized for 2 min with 3 volumes (v/w) of PBS. […] For CSF samples: […] Tmax, T1/2, AUC and log BB values were calculated using conventional methods.

Row | SMILES | logBB
1 | CC(F)(F)CCOc1ccc([C@H]2COC(=O)N2c2ccc3[nH]cnc3c2)c(F)c1F [compound 1, (S)-3-(1H-benzo[d]imidazol-5-yl)-4-(4-(3,3-difluorobutoxy)-2,3-difluorophenyl)-oxazolidin-2-one] | −0.9363
2 | O=C1OC[C@H](c2ccc(OCCC(F)F)cc2F)N1c1ccc2[nH]cnc2c1 [compound 2, (S)-3-(1H-benzo[d]imidazol-5-yl)-4-(4-(3,3-difluoropropoxy)-2-fluorophenyl)oxazolidin-2-one] | −1.1517
3 | CC(F)(F)CCOc1ccc([C@H]2COC(=O)N2c2ccc3[nH]cnc3c2)c(F)c1 [compound 3, (S)-3-(1H-benzo[d]imidazol-5-yl)-4-(4-(3,3-difluorobutoxy)-2-fluorophenyl)oxazolidin-2-one] | −1.0428
4 | CC(F)(F)COc1ccc([C@H]2COC(=O)N2c2ccc3[nH]cnc3c2)cc1F [compound 5, (S)-3-(1H-benzo[d]imidazol-5-yl)-4-(4-(2,2-difluoropropoxy)-3-fluorophenyl)oxazolidin-2-one] | −1.0928
5 | CC(F)(F)COc1ccc([C@H]2COC(=O)N2c2ccc3[nH]cnc3c2)c(F)c1F [compound 6, (S)-3-(1H-benzo[d]imidazol-5-yl)-4-(4-(2,2-difluoropropoxy)-2,3-difluorophenyl)oxazolidin-2-one] | −1.0431
6 | CC(F)(F)COc1ccc([C@H]2COC(=O)N2c2ccc3[nH]cnc3c2)c(F)c1 [compound 7, (S)-3-(1H-benzo[d]imidazol-5-yl)-4-(4-(2,2-difluoropropoxy)-2-fluorophenyl)oxazolidin-2-one] | −0.9439
7 | CC(F)(F)COc1c(F)cc([C@H]2COC(=O)N2c2ccc3[nH]cnc3c2)cc1F [compound 8, (S)-3-(1H-benzo[d]imidazol-5-yl)-4-(4-(2,2-difluoropropoxy)-3,5-difluorophenyl)oxazolidin-2-one] | −0.9993
8 | CC(F)(F)CCOc1ccc([C@H]2COC(=O)N2c2ccc3[nH]cnc3c2)cc1F [compound 10, (S)-3-(1H-benzo[d]imidazol-5-yl)-4-(4-(3,3-difluorobutoxy)-3-fluorophenyl)oxazolidin-2-one] | −1.1234
9 | O=C1OC[C@H](c2ccc(OCCC(F)F)c(F)c2F)N1c1ccc2[nH]cnc2c1 [compound 11, (S)-3-(1H-benzo[d]imidazol-5-yl)-4-(4-(3,3-difluoropropoxy)-2,3-difluorophenyl)oxazolidin-2-one] | −0.9451
10 | O=C1OC[C@H](c2ccc(OCCC(F)F)c(F)c2)N1c1ccc2[nH]cnc2c1 [compound 12, (S)-3-(1H-benzo[d]imidazol-5-yl)-4-(4-(3,3-difluoropropoxy)-3-fluorophenyl)oxazolidin-2-one] | −1.1821
11 | O=C1OC[C@H](c2ccc(N3CCC(F)(F)C3)cc2F)N1c1ccc2[nH]cnc2c1 [compound 18, (S)-3-(1H-benzo[d]imidazol-5-yl)-4-(4-(3,3-difluoropyrrolidin-1-yl)-2-fluorophenyl)-oxazolidin-2-one] | −1.2913
12 | O=C1OC[C@H](c2ccc(N3CCC(F)(F)C3)c(F)c2F)N1c1ccc2[nH]cnc2c1 [compound 19, (S)-3-(1H-benzo[d]imidazol-5-yl)-4-(4-(3,3-difluoropyrrolidin-1-yl)-2,3-difluorophenyl)-oxazolidin-2-one] | −1.2208
13 | O=C1OC[C@H](c2ccc(N3CCC(F)(F)C3)c(F)c2)N1c1ccc2[nH]cnc2c1 [compound 21, (S)-3-(1H-benzo[d]imidazol-5-yl)-4-(4-(3,3-difluoropyrrolidin-1-yl)-3-fluorophenyl) oxazolidin-2-one] | −1.208
